Experimental data from ChEMBL document CHEMBL1255467, “Comparative in vitro antimicrobial activities of torezolid (TR-700), the active moiety of a new oxazolidinone, torezolid phosphate (TR-701), determination of tentative disk diffusion interpretive criteria, and quality control ranges” (2010).
Converted amounts (≈) assume the structure as drawn.

Tests used:
Staphylococcus sp. [1] = test: Antimicrobial activity against methicillin-susceptible coagulase-negative Staphylococcus by broth dilution method; type: functional
Haemophilus influenzae [2] = test: Antimicrobial activity against beta-lactamase negative Haemophilus influenzae by broth dilution method; type: functional
Staphylococcus aureus [3] = test: Antimicrobial activity against vancomycin-nonsusceptible Staphylococcus aureus by broth dilution method; type: functional
Enterococcus faecium [4] = test: Antimicrobial activity against vancomycin-resistant Enterococcus faecium by broth dilution method; type: functional
Streptococcus pneumoniae [5] = test: Antimicrobial activity against Streptococcus pneumoniae by broth dilution method; type: functional
Streptococcus sp = test: Antimicrobial activity against streptococcal sp. by broth dilution method
Streptococcus pneumoniae [6] = test: Antimicrobial activity against penicillin-susceptible Streptococcus pneumoniae by broth dilution method; type: functional
Staphylococcus aureus [7] = test: Antimicrobial activity against methicillin-susceptible Staphylococcus aureus by broth dilution method; type: functional
Moraxella catarrhalis = test: Antimicrobial activity against Moraxella catarrhalis by broth dilution method; type: functional
Staphylococcus aureus [8] = test: Antimicrobial activity against methicillin-resistant Staphylococcus aureus by broth dilution method; type: functional; details: Staphylococcus aureus
Corynebacterium jeikeium = test: Antimicrobial activity against Corynebacterium jeikeium by broth dilution method; type: functional
Staphylococcus sp. [9] = test: Antimicrobial activity against methicillin-resistant coagulase-negative Staphylococcus by broth dilution method; type: functional
Streptococcus pneumoniae [10] = test: Antimicrobial activity against penicillin-resistant Streptococcus pneumoniae by broth dilution method; type: functional
Enterococcus faecium [11] = test: Antimicrobial activity against vancomycin-susceptible Enterococcus faecium by broth dilution method; type: functional
Haemophilus influenzae [12] = test: Antimicrobial activity against ampicillin-nonsusceptible beta-lactamase negative Haemophilus influenzae by broth dilution method; type: functional
Streptococcus viridans = test: Antimicrobial activity against Streptococcus viridans by broth dilution method; type: functional
Streptococcus pneumoniae [13] = test: Antimicrobial activity against penicillin-intermediate Streptococcus pneumoniae by broth dilution method; type: functional
Haemophilus influenzae [14] = test: Antimicrobial activity against beta-lactamase positive Haemophilus influenzae by broth dilution method; type: functional; details: for MIC90: read-out: MIC90
Enterococcus faecalis [15] = test: Antimicrobial activity against vancomycin-susceptible Enterococcus faecalis by broth dilution method; type: functional
Enterococcus sp. = test: Antimicrobial activity against Enterococcus by broth dilution method; type: functional
Staphylococcus sp. [16] = test: Antimicrobial activity against Staphylococcus sp. by broth dilution method; type: functional
Listeria monocytogenes = test: Antimicrobial activity against Listeria monocytogenes by broth dilution method; type: functional
Haemophilus influenzae [17] = test: Antimicrobial activity against Haemophilus influenzae by broth dilution method; type: functional
Staphylococcus aureus [18] = test: Antimicrobial activity against Staphylococcus aureus by broth dilution method; type: functional
Staphylococcus aureus [19] = test: Antimicrobial activity against linezolid-resistant Staphylococcus aureus by broth dilution method; type: functional
Enterococcus faecalis [20] = test: Antimicrobial activity against vancomycin-resistant Enterococcus faecalis by broth dilution method; type: functional

## CO/N=C(\C(=O)N[C@@H]1C(=O)N2C(C(=O)O)=C(COC(C)=O)CS[C@H]12)c1csc(N)n1 [CEFOTAXIME]
Staphylococcus sp. [1]; Staphylococcus sp.
  MIC50: 0.5 µg/mL (≈ 1.1 µM)
  MIC90: 2 µg/mL (≈ 4.39 µM)
Haemophilus influenzae [2]; Haemophilus influenzae
  MIC: 0.008 µg/mL (≈ 0.0176 µM)
  MIC50: 0.008 µg/mL (≈ 0.0176 µM)
  MIC90: 0.015 µg/mL (≈ 0.0329 µM)
Staphylococcus aureus [3]; Staphylococcus aureus
  MIC50: > 64 µg/mL
  MIC90: > 64 µg/mL
Enterococcus faecium [4]
  MIC: > 64 µg/mL
Streptococcus pneumoniae [5]; Streptococcus pneumoniae
  MIC50: 0.12 µg/mL (≈ 0.263 µM)
  MIC90: 2 µg/mL (≈ 4.39 µM)
Streptococcus sp; Streptococcus sp.
  MIC50: 0.03 µg/mL (≈ 0.0659 µM)
  MIC90: 1 µg/mL (≈ 2.2 µM)
Streptococcus pneumoniae [6]; Streptococcus pneumoniae
  MIC: 0.015 µg/mL (≈ 0.0329 µM)
  MIC50: 0.015 µg/mL (≈ 0.0329 µM)
  MIC90: 0.03 µg/mL (≈ 0.0659 µM)
Staphylococcus aureus [7]; Staphylococcus aureus
  MIC50: 2 µg/mL (≈ 4.39 µM)
  MIC90: 2 µg/mL (≈ 4.39 µM)
Moraxella catarrhalis
  MIC50: 0.25 µg/mL (≈ 0.549 µM)
  MIC90: 1 µg/mL (≈ 2.2 µM)
Staphylococcus aureus [8]
  MIC50: 16 µg/mL (≈ 35.1 µM)
Corynebacterium jeikeium
  MIC50: 32 µg/mL (≈ 70.3 µM)
  MIC90: 32 µg/mL (≈ 70.3 µM)
Staphylococcus sp. [9]
  MIC50: 8 µg/mL (≈ 17.6 µM)
Streptococcus pneumoniae [10]
  MIC50: 1 µg/mL (≈ 2.2 µM)
  MIC90: 8 µg/mL (≈ 17.6 µM)
Enterococcus faecium [11]; Enterococcus faecium
  MIC50: > 64 µg/mL
  MIC90: > 64 µg/mL
Haemophilus influenzae [12]; Haemophilus influenzae
  MIC50: 0.5 µg/mL (≈ 1.1 µM)
  MIC90: 0.5 µg/mL (≈ 1.1 µM)
Streptococcus viridans
  MIC50: 0.12 µg/mL (≈ 0.263 µM)
  MIC90: 0.5 µg/mL (≈ 1.1 µM)
Streptococcus pneumoniae [13]; Streptococcus pneumoniae
  MIC50: 0.12 µg/mL (≈ 0.263 µM)
  MIC90: 0.5 µg/mL (≈ 1.1 µM)
Haemophilus influenzae [14]; Haemophilus influenzae
  MIC50: 0.015 µg/mL (≈ 0.0329 µM)
  MIC90: 0.015 µg/mL (≈ 0.0329 µM)
Enterococcus faecalis [15]; Enterococcus faecalis
  MIC50: > 64 µg/mL
  MIC90: > 64 µg/mL
Enterococcus sp.; Enterococcus sp.
  MIC50: > 64 µg/mL
  MIC90: > 64 µg/mL
Staphylococcus sp. [16]; Staphylococcus sp.
  MIC50: 4 µg/mL (≈ 8.78 µM)
  MIC90: > 64 µg/mL
Listeria monocytogenes
  MIC50: 32 µg/mL (≈ 70.3 µM)
  MIC90: 32 µg/mL (≈ 70.3 µM)
Haemophilus influenzae [17]; Haemophilus influenzae
  MIC50: 0.015 µg/mL (≈ 0.0329 µM)
  MIC90: 0.5 µg/mL (≈ 1.1 µM)
Staphylococcus aureus [18]; Staphylococcus aureus
  MIC50: > 8 µg/mL
  MIC90: > 64 µg/mL

## CC(=O)NC[C@H]1CN(c2ccc(N3CCOCC3)c(F)c2)C(=O)O1 [LINEZOLID]
Staphylococcus sp. [1]
  MBC50: >8 µg/mL
  MBC90: >8 µg/mL
Staphylococcus sp. [1]; Staphylococcus sp.
  MBC: > 2 µg/mL
  MIC50: 1 µg/mL (≈ 2.96 µM)
  MIC90: 2 µg/mL (≈ 5.93 µM)
Staphylococcus aureus [19]
  MBC: > 8 µg/mL
  MIC50: > 8 µg/mL
  MIC90: > 8 µg/mL
Haemophilus influenzae [2]
  MBC50: >8 µg/mL
  MBC90: >8 µg/mL
Haemophilus influenzae [2]; Haemophilus influenzae
  MBC: > 8 µg/mL
  MIC50: > 8 µg/mL
  MIC90: > 8 µg/mL
Staphylococcus aureus [3]
  MBC50: 2 µg/mL (≈ 5.93 µM)
  MBC90: 4 µg/mL (≈ 11.9 µM)
Staphylococcus aureus [3]; Staphylococcus aureus
  MBC: 2 µg/mL (≈ 5.93 µM)
  MIC50: 2 µg/mL (≈ 5.93 µM)
  MIC90: 4 µg/mL (≈ 11.9 µM)
Enterococcus faecium [4]
  MBC: > 4 µg/mL
  MIC50: 2 µg/mL (≈ 5.93 µM)
  MIC90: 4 µg/mL (≈ 11.9 µM)
Streptococcus pneumoniae [5]
  MBC50: 4 µg/mL (≈ 11.9 µM)
  MBC90: 8 µg/mL (≈ 23.7 µM)
Streptococcus pneumoniae [5]; Streptococcus pneumoniae
  MBC: > 2 µg/mL
  MIC50: 1 µg/mL (≈ 2.96 µM)
  MIC90: 2 µg/mL (≈ 5.93 µM)
Streptococcus sp
  MBC50: 8 µg/mL (≈ 23.7 µM)
  MBC90: >8 µg/mL
Streptococcus sp; Streptococcus sp.
  MBC: > 2 µg/mL
  MIC50: 1 µg/mL (≈ 2.96 µM)
  MIC90: 2 µg/mL (≈ 5.93 µM)
Streptococcus pneumoniae [6]
  MBC50: 4 µg/mL (≈ 11.9 µM)
  MBC90: 8 µg/mL (≈ 23.7 µM)
Streptococcus pneumoniae [6]; Streptococcus pneumoniae
  MBC: > 2 µg/mL
  MIC50: 1 µg/mL (≈ 2.96 µM)
  MIC90: 2 µg/mL (≈ 5.93 µM)
Staphylococcus aureus [7]
  MBC50: >8 µg/mL
  MBC90: >8 µg/mL
Staphylococcus aureus [7]; Staphylococcus aureus
  MBC: > 4 µg/mL
  MIC50: 2 µg/mL (≈ 5.93 µM)
  MIC90: 2 µg/mL (≈ 5.93 µM)
Moraxella catarrhalis
  MIC: 8 µg/mL (≈ 23.7 µM)
  MIC50: 8 µg/mL (≈ 23.7 µM)
  MIC90: 8 µg/mL (≈ 23.7 µM)
Staphylococcus aureus [8]
  MIC50: 2 µg/mL (≈ 5.93 µM)
  MIC90: 4 µg/mL (≈ 11.9 µM)
Corynebacterium jeikeium
  MIC50: 1 µg/mL (≈ 2.96 µM)
  MIC90: 1 µg/mL (≈ 2.96 µM)
Staphylococcus sp. [9]
  MBC: > 8 µg/mL
  MIC50: 1 µg/mL (≈ 2.96 µM)
  MIC90: 4 µg/mL (≈ 11.9 µM)
Streptococcus pneumoniae [10]
  MBC: 4 µg/mL (≈ 11.9 µM)
  MIC50: 1 µg/mL (≈ 2.96 µM)
  MIC90: 2 µg/mL (≈ 5.93 µM)
Enterococcus faecium [11]
  MBC50: >8 µg/mL
  MBC90: >8 µg/mL
Enterococcus faecium [11]; Enterococcus faecium
  MBC: > 8 µg/mL
  MIC: 2 µg/mL (≈ 5.93 µM)
  MIC50: 2 µg/mL (≈ 5.93 µM)
  MIC90: 2 µg/mL (≈ 5.93 µM)
Haemophilus influenzae [12]
  MBC50: >8 µg/mL
  MBC90: >8 µg/mL
Haemophilus influenzae [12]; Haemophilus influenzae
  MBC: > 8 µg/mL
  MIC: > 8 µg/mL
  MIC50: > 8 µg/mL
  MIC90: > 8 µg/mL
Streptococcus viridans
  MIC50: 2 µg/mL (≈ 5.93 µM)
  MIC90: 2 µg/mL (≈ 5.93 µM)
Streptococcus pneumoniae [13]
  MBC50: 4 µg/mL (≈ 11.9 µM)
  MBC90: 8 µg/mL (≈ 23.7 µM)
Streptococcus pneumoniae [13]; Streptococcus pneumoniae
  MBC: > 2 µg/mL
  MIC50: 1 µg/mL (≈ 2.96 µM)
  MIC90: 2 µg/mL (≈ 5.93 µM)
Haemophilus influenzae [14]
  MBC50: >8 µg/mL
  MBC90: >8 µg/mL
Haemophilus influenzae [14]; Haemophilus influenzae
  MBC: > 8 µg/mL
  MIC: > 8 µg/mL
  MIC50: > 8 µg/mL
  MIC90: > 8 µg/mL
Enterococcus faecalis [15]
  MBC50: >8 µg/mL
  MBC90: >8 µg/mL
Enterococcus faecalis [15]; Enterococcus faecalis
  MBC: > 8 µg/mL
  MIC50: 2 µg/mL (≈ 5.93 µM)
  MIC90: 2 µg/mL (≈ 5.93 µM)
Enterococcus faecalis [20]
  MIC50: 2 µg/mL (≈ 5.93 µM)
  MIC90: 2 µg/mL (≈ 5.93 µM)
Enterococcus sp.
  MBC50: >8 µg/mL
  MBC90: >8 µg/mL
Enterococcus sp.; Enterococcus sp.
  MBC: > 4 µg/mL
  MIC50: 2 µg/mL (≈ 5.93 µM)
  MIC90: 2 µg/mL (≈ 5.93 µM)
Staphylococcus sp. [16]
  MBC50: 8 µg/mL (≈ 23.7 µM)
  MBC90: >8 µg/mL
Staphylococcus sp. [16]; Staphylococcus sp.
  MBC: > 2 µg/mL
  MIC50: 2 µg/mL (≈ 5.93 µM)
  MIC90: 2 µg/mL (≈ 5.93 µM)
Listeria monocytogenes
  MIC: 2 µg/mL (≈ 5.93 µM)
  MIC50: 2 µg/mL (≈ 5.93 µM)
  MIC90: 2 µg/mL (≈ 5.93 µM)
Haemophilus influenzae [17]
  MBC50: >8 µg/mL
  MBC90: >8 µg/mL
Haemophilus influenzae [17]; Haemophilus influenzae
  MBC: > 8 µg/mL
  MIC50: > 8 µg/mL
  MIC90: > 8 µg/mL
Staphylococcus aureus [18]
  MBC50: 8 µg/mL (≈ 23.7 µM)
  MBC90: >8 µg/mL
Staphylococcus aureus [18]; Staphylococcus aureus
  MBC: > 2 µg/mL
  MIC50: 2 µg/mL (≈ 5.93 µM)
  MIC90: 2 µg/mL (≈ 5.93 µM)
